In patent publication US20220281848A1, “PYRAZOLE-SUBSTITUTED PYRROLIDINONES AS HERBICIDES” (FMC Corporation, priority 2019, published 2022):

Assays:
Format in all cases: in vivo
Details in all cases: after 13 d
corn (Zea mays, ZEAMX) [1] = test: Test A post-emergence, corn
Method: (§1) Seeds of corn (Zea mays, ZEAMX), giant foxtail (Setaria faberi, SETFA), barnyardgrass (Echinochloa crus-galli, ECHCG), ivy-leaved morning glory (Ipomoea hederacea, IPOHE)), redroot pigweed (Amaranthus retroflexus, AMARE) and velvetleaf (Abutilon theophrasti, ABUTH) were sown in standard soil in pots. After cultivation for 8 d under controlled conditions in a glasshouse (at 24/16° C., day/night; 14 h light; 65% humidity), the plants were sprayed with an aqueous spray solution derived from the formulation of the technical active ingredient in acetone/water (50:50) solution containing 0.5% Tween 20 (polyoxyethylene sorbitan monolaurate, CAS RN 9005-64-5) to give a final dose of 15.625, 62.5 or 250 g/ha of test compound.
(§2) The test plants were then grown on under controlled conditions in a glasshouse (at 24/16° C., day/night; 14 h light; 65% humidity) and watered twice daily. After 13 d the test was evaluated (100=total damage to plant; 0=no damage to plant).

[2] = test system: velvetleaf (Abutilon theophrasti, ABUTH); test: Test A post-emergence, velvetleaf
Method: as §1, §2

[3] = test system: ivy-leaved morning glory (Ipomoea hederacea, IPOHE); test: Test A post-emergence, ivy-leaved morning glory
Method: as §1, §2

[4] = test system: barnyardgrass (Echinochloa crus-galli, ECHCG); test: Test A pre-emergence, barnyardgrass
Method: as §1, with “IPOHE),” for “IPOHE)),”, “one day” for “8 d”
(§3) The test plants were then grown under controlled conditions in a glasshouse (at 24/16° C., day/night; 14 h light; 65% humidity) and watered twice daily. After 13 d the test was evaluated (100=total damage to plant; 0=no damage to plant).

[5] = test system: redroot pigweed (Amaranthus retroflexus, AMARE); test: Test A pre-emergence, redroot pigweed
Method: as §1, with “IPOHE),” for “IPOHE)),”, “one day” for “8 d”
as §3

[6] = test system: giant foxtail (Setaria faberi, SETFA); test: Test A pre-emergence, giant foxtail
Method: as §1, with “IPOHE),” for “IPOHE)),”, “one day” for “8 d”
as §3

[7] = test system: giant foxtail (Setaria faberi, SETFA); test: Test A post-emergence, giant foxtail
Method: as §1, §2

corn (Zea mays, ZEAMX) [8] = test: Test A pre-emergence, corn
Method: as §1, with “IPOHE),” for “IPOHE)),”, “one day” for “8 d”
as §3

[9] = test system: barnyardgrass (Echinochloa crus-galli, ECHCG); test: Test A post-emergence, barnyardgrass
Method: as §1, §2

[10] = test system: ivy-leaved morning glory (Ipomoea hederacea, IPOHE); test: Test A pre-emergence, ivy-leaved morning glory
Method: as §1, with “IPOHE),” for “IPOHE)),”, “one day” for “8 d”
as §3

[11] = test system: redroot pigweed (Amaranthus retroflexus, AMARE); test: Test A post-emergence, redroot pigweed
Method: as §1, §2

[12] = test system: velvetleaf (Abutilon theophrasti, ABUTH); test: Test A pre-emergence, velvetleaf
Method: as §1, with “IPOHE),” for “IPOHE)),”, “one day” for “8 d”
as §3

SMILES	damage to plant (100=total damage; 0=no damage) ZEAMX (corn (Zea mays, ZEAMX) [1]; Post-Emergence at 15.625 g/ha)	damage to plant (100=total damage; 0=no damage) ZEAMX (corn (Zea mays, ZEAMX) [1]; Post-Emergence at 62.5 g/ha)	damage to plant (100=total damage; 0=no damage) ZEAMX (corn (Zea mays, ZEAMX) [1]; Post-Emergence at 250 g/ha)	damage to plant (100=total damage; 0=no damage) ABUTH ([2]; Post-Emergence at 15.625 g/ha)	damage to plant (100=total damage; 0=no damage) ABUTH ([2]; Post-Emergence at 62.5 g/ha)	damage to plant (100=total damage; 0=no damage) ABUTH ([2]; Post-Emergence at 250 g/ha)	damage to plant (100=total damage; 0=no damage) IPOHE ([3]; Post-Emergence at 15.625 g/ha)	damage to plant (100=total damage; 0=no damage) IPOHE ([3]; Post-Emergence at 62.5 g/ha)	damage to plant (100=total damage; 0=no damage) IPOHE ([3]; Post-Emergence at 250 g/ha)	damage to plant (100=total damage; 0=no damage) ECHCG ([4]; Pre-Emergence at 62.5 g/ha)	damage to plant (100=total damage; 0=no damage) ECHCG ([4]; Pre-Emergence at 250 g/ha)	damage to plant (100=total damage; 0=no damage) AMARE ([5]; Pre-Emergence at 62.5 g/ha)	damage to plant (100=total damage; 0=no damage) AMARE ([5]; Pre-Emergence at 250 g/ha)	damage to plant (100=total damage; 0=no damage) SETFA ([6]; Pre-Emergence at 62.5 g/ha)	damage to plant (100=total damage; 0=no damage) SETFA ([6]; Pre-Emergence at 250 g/ha)	damage to plant (100=total damage; 0=no damage) SETFA ([7]; Post-Emergence at 15.625 g/ha)	damage to plant (100=total damage; 0=no damage) SETFA ([7]; Post-Emergence at 62.5 g/ha)	damage to plant (100=total damage; 0=no damage) SETFA ([7]; Post-Emergence at 250 g/ha)	damage to plant (100=total damage; 0=no damage) ZEAMX (corn (Zea mays, ZEAMX) [8]; Pre-Emergence at 62.5 g/ha)	damage to plant (100=total damage; 0=no damage) ZEAMX (corn (Zea mays, ZEAMX) [8]; Pre-Emergence at 250 g/ha)	other results
CN1CC(c2nn(C)c(Cl)c2Br)C(C(=O)Nc2ccc(F)cc2F)C1=O (racemic) [Compound 30]	0	0	0	0	0	0	0	0	0	10	20	0	10	0	10	10	20	50	0	0	damage to plant (100=total damage; 0=no damage) ECHCG ([4]; Pre-Emergence at 15.625 g/ha): 0; damage to plant (100=total damage; 0=no damage) AMARE ([5]; Pre-Emergence at 15.625 g/ha): 0; damage to plant (100=total damage; 0=no damage) SETFA ([6]; Pre-Emergence at 15.625 g/ha): 0; damage to plant (100=total damage; 0=no damage) ZEAMX (corn (Zea mays, ZEAMX) [8]; Pre-Emergence at 15.625 g/ha): 0; damage to plant (100=total damage; 0=no damage) ECHCG ([9]; Post-Emergence at 15.625 g/ha): 0; damage to plant (100=total damage; 0=no damage) ECHCG ([9]; Post-Emergence at 62.5 g/ha): 20; damage to plant (100=total damage; 0=no damage) ECHCG ([9]; Post-Emergence at 250 g/ha): 50; damage to plant (100=total damage; 0=no damage) IPOHE ([10]; Pre-Emergence at 15.625 g/ha): 0; damage to plant (100=total damage; 0=no damage) IPOHE ([10]; Pre-Emergence at 62.5 g/ha): 0; damage to plant (100=total damage; 0=no damage) IPOHE ([10]; Pre-Emergence at 250 g/ha): 10; damage to plant (100=total damage; 0=no damage) AMARE ([11]; Post-Emergence at 15.625 g/ha): 0; damage to plant (100=total damage; 0=no damage) AMARE ([11]; Post-Emergence at 62.5 g/ha): 0; damage to plant (100=total damage; 0=no damage) AMARE ([11]; Post-Emergence at 250 g/ha): 10; damage to plant (100=total damage; 0=no damage) ABUTH ([12]; Pre-Emergence at 15.625 g/ha): 0; damage to plant (100=total damage; 0=no damage) ABUTH ([12]; Pre-Emergence at 62.5 g/ha): 0; damage to plant (100=total damage; 0=no damage) ABUTH ([12]; Pre-Emergence at 250 g/ha): 0
CN1CC(c2nn(C)c(Cl)c2Br)C(C(=O)Nc2cccc(F)c2F)C1=O (racemic) [Compound 28]	0	0	0	0	0	0	0	0	0	70	90	0	0	80	90	10	30	70	0	0	damage to plant (100=total damage; 0=no damage) ECHCG ([4]; Pre-Emergence at 15.625 g/ha): 30; damage to plant (100=total damage; 0=no damage) AMARE ([5]; Pre-Emergence at 15.625 g/ha): 0; damage to plant (100=total damage; 0=no damage) SETFA ([6]; Pre-Emergence at 15.625 g/ha): 20; damage to plant (100=total damage; 0=no damage) ZEAMX (corn (Zea mays, ZEAMX) [8]; Pre-Emergence at 15.625 g/ha): 0; damage to plant (100=total damage; 0=no damage) ECHCG ([9]; Post-Emergence at 15.625 g/ha): 30; damage to plant (100=total damage; 0=no damage) ECHCG ([9]; Post-Emergence at 62.5 g/ha): 50; damage to plant (100=total damage; 0=no damage) ECHCG ([9]; Post-Emergence at 250 g/ha): 70; damage to plant (100=total damage; 0=no damage) IPOHE ([10]; Pre-Emergence at 15.625 g/ha): 0; damage to plant (100=total damage; 0=no damage) IPOHE ([10]; Pre-Emergence at 62.5 g/ha): 0; damage to plant (100=total damage; 0=no damage) IPOHE ([10]; Pre-Emergence at 250 g/ha): 0; damage to plant (100=total damage; 0=no damage) AMARE ([11]; Post-Emergence at 15.625 g/ha): 30; damage to plant (100=total damage; 0=no damage) AMARE ([11]; Post-Emergence at 62.5 g/ha): 40; damage to plant (100=total damage; 0=no damage) AMARE ([11]; Post-Emergence at 250 g/ha): 50; damage to plant (100=total damage; 0=no damage) ABUTH ([12]; Pre-Emergence at 15.625 g/ha): 0; damage to plant (100=total damage; 0=no damage) ABUTH ([12]; Pre-Emergence at 62.5 g/ha): 0; damage to plant (100=total damage; 0=no damage) ABUTH ([12]; Pre-Emergence at 250 g/ha): 0
CCn1nc(C2CN(C)C(=O)C2C(=O)Nc2cccc(F)c2F)c2cccc(F)c21 (stereo not drawn) [Compound 15]	0	0	0	0	0	0	0	0	0	0	0	0	0	0	0	0	0	0	0	0	damage to plant (100=total damage; 0=no damage) ECHCG ([9]; Post-Emergence at 15.625 g/ha): 0; damage to plant (100=total damage; 0=no damage) ECHCG ([9]; Post-Emergence at 62.5 g/ha): 0; damage to plant (100=total damage; 0=no damage) ECHCG ([9]; Post-Emergence at 250 g/ha): 0; damage to plant (100=total damage; 0=no damage) IPOHE ([10]; Pre-Emergence at 62.5 g/ha): 0; damage to plant (100=total damage; 0=no damage) IPOHE ([10]; Pre-Emergence at 250 g/ha): 0; damage to plant (100=total damage; 0=no damage) AMARE ([11]; Post-Emergence at 15.625 g/ha): 0; damage to plant (100=total damage; 0=no damage) AMARE ([11]; Post-Emergence at 62.5 g/ha): 0; damage to plant (100=total damage; 0=no damage) AMARE ([11]; Post-Emergence at 250 g/ha): 0; damage to plant (100=total damage; 0=no damage) ABUTH ([12]; Pre-Emergence at 62.5 g/ha): 0; damage to plant (100=total damage; 0=no damage) ABUTH ([12]; Pre-Emergence at 250 g/ha): 0
CN1CC(c2cc(C(F)(F)F)n(C)n2)C(C(=O)Nc2cccc(F)c2OC(F)F)C1=O (racemic) [Compound 23]	0	20	80	0	0	0	0	10	30	90	90	0	0	90	90	60	80	80	20	40	damage to plant (100=total damage; 0=no damage) ECHCG ([4]; Pre-Emergence at 15.625 g/ha): 70; damage to plant (100=total damage; 0=no damage) AMARE ([5]; Pre-Emergence at 15.625 g/ha): 0; damage to plant (100=total damage; 0=no damage) SETFA ([6]; Pre-Emergence at 15.625 g/ha): 70; damage to plant (100=total damage; 0=no damage) ZEAMX (corn (Zea mays, ZEAMX) [8]; Pre-Emergence at 15.625 g/ha): 10; damage to plant (100=total damage; 0=no damage) ECHCG ([9]; Post-Emergence at 15.625 g/ha): 50; damage to plant (100=total damage; 0=no damage) ECHCG ([9]; Post-Emergence at 62.5 g/ha): 80; damage to plant (100=total damage; 0=no damage) ECHCG ([9]; Post-Emergence at 250 g/ha): 80; damage to plant (100=total damage; 0=no damage) IPOHE ([10]; Pre-Emergence at 15.625 g/ha): 0; damage to plant (100=total damage; 0=no damage) IPOHE ([10]; Pre-Emergence at 62.5 g/ha): 10; damage to plant (100=total damage; 0=no damage) IPOHE ([10]; Pre-Emergence at 250 g/ha): 20; damage to plant (100=total damage; 0=no damage) AMARE ([11]; Post-Emergence at 15.625 g/ha): 0; damage to plant (100=total damage; 0=no damage) AMARE ([11]; Post-Emergence at 62.5 g/ha): 0; damage to plant (100=total damage; 0=no damage) AMARE ([11]; Post-Emergence at 250 g/ha): 0; damage to plant (100=total damage; 0=no damage) ABUTH ([12]; Pre-Emergence at 15.625 g/ha): 0; damage to plant (100=total damage; 0=no damage) ABUTH ([12]; Pre-Emergence at 62.5 g/ha): 0; damage to plant (100=total damage; 0=no damage) ABUTH ([12]; Pre-Emergence at 250 g/ha): 0
